# Source: patent EP0558661B1, “POLYAZAMACROCYCLIC COMPOUNDS FOR COMPLEXATION OF METAL IONS” (BOARD OF REGENTS THE UNIVERSITY OF TEXAS SYSTEM, priority 1990, dated 1992)
# Read-outs that look alike come from different tables or passages of the source.
# Key:
# [1] = KD of the DOTEP calcium complex by 31P NMR and pH potentiometry; assay type: binding; conditions: Ca(DOTEP); at pH 7.4
# Method: The ^31P spectrum shown in Figure 9 was obtained on a solution containing approximately 1 mM Ca^2+ and 3 mM DOTEP in an aqueous solution at physiological pH. Clearly, the ^31P resonances of the free and bound forms of DOTEP have distinct chemical shifts and neither overlaps with the ^31P resonances of metabolites normally observed in tissue.
# The value of KD at pH 7.4 reported above was determined by ^31P NMR (measuring the free and bound integrals as a function of pH in solutions containing known amounts of [Ca^2+]total and [DOTEP]total) and by pH potentiometry.
# RBCs = assay: Red blood cell loading of NOTPME and intracellular free Mg2+ by 31P NMR; assay type: cell-based, Human
# Method: Fresh whole blood was obtained placed in heparinized tubes and centrifuged at 3000 g for 6 min. to remove the buffy coat. RBCs were then washed three times in 5 mM phosphate buffered saline at pH 7.4. RBCs at 50% hematocrit were suspended in the loading medium containing 120 mM NaCl, 5 mM MgCl2, 10 mM HEPES pH 7.4, 10 mM glucose, and 10 mM NOTPME and incubated at 37°C for 12 hours. No lysis of RBCs were observed during the loading procedure. The RBCs were centrifuged and the supernatant discarded. The RBCs were washed twice with phosphate buffered saline at pH 7.4 before suspension in an isotonic medium.
# Figure 6 illustrates one application of NOTPME to detect intracellular free Mg^2+ in RBCs. NOTPME loaded RBCs (Figure 6.b) were prepared by incubating RBCs at 37°C in a loading medium containing NOTPME in the presence of 5mM MgCl2 for 12 hours. NOTPME loading into RBCs was not observed in the absence of MgCl2 in the loading medium.
# As in the in vitro studies, two resonances were observed corresponding to free and Mg^2+ bound NOTPME in RBCs. […] Since intracellular free Mg^2+ levels in RBCs normally range between 0.2 - 0.3 mM [12,19,20], the high concentration of intracellular free Mg^2+ observed in this experiment must have resulted from transport of Mg^2+ as a complex with NOTPME. Upon addition of the divalent cation ionophore A23187 to the suspension medium, an increase in intracellular free Mg^2+ concentration (to 1.90 mM) was observed (data not shown).
# [2] = Protonation constants by potentiometric titration; assay type: physicochemical; conditions: 0.1 m tetramethylammonium chloride
# Method: (§1) Potentiometric titrations were conducted at 25°C using a Corning Ion Analyzer (model 250) and a Metrohm Dorsimat automatic burette (Brinkman Instruments). […] Na3NOTPME was dissolved in 0.1 M tetramethylammonium chloride, the pH adjusted to low pH value with HCl and titrated with 0.098 M KOH. KOH was standardized by potentiometric titration against potassium hydrogen phthalate and stored under N2 atmosphere. The hydrogen ion activity coefficient and Kw were determined separately in these same salt solutions. Stability constants of Zn(NOTPME)^-, Mg(NOTPME)^-, and Ca(NOTPME)^- were determined by potentiometric titration of solutions containing 1:1 ratio of metal and ligand. In all of the titrations, samples were covered by a layer of cyclohexane to exclude CO2.
# (§2) Protonation constants (KHiL) and stability constants (KML, and KMHL) are defined by the following equations: KHiL = [Hi L] / {[Hi-1 (L] {H)^+ ]) [formula] KML = [ML] / {[M] [L]) [formula] KMHL (= [MHL] / {[ML] [H)^+ ]} [formula] Protonation and stability constants were obtained from the potentiometric data using a simplex non-linear algorithm run on an IBM PC.
# A representative potentiometric titration curve for NOTPME in 0.1 M tetramethylammonium chloride and 25°C is illustrated in Figure 2. […] The phosphorous shifts are very sensitive to protonation of the nitrogens in the polyaza ring, similar to that observed for the parent phosphonate NOTP [17]. The first two protonations (log K = 11.8, 3.65) result in ^31P shifts to low frequency which is consistent with protonation at two ring nitrogens. […] These differences in pK2 may reflect differences in the ability of the phosphonate versus the phosphonate monoester side chains to form internal hydrogen bonds with the protonated nitrogens.
# [3] = Solubility as observed on the isolated product; assay type: physicochemical
# Method: 9.20 g of NOTPDE (14.15 mmol) was mixed with 2.50 g of NaOH in 9 ml H2O) and after 2 hours the entire reaction mixture was boiled until a clear solution was obtained (approximately 5 minutes). The solution was cooled to room temperature and was allowed to stand overnight. The crystals formed were filtered off from the viscous mother liquor using a pressure filter funnel with a coarse porosity grade filter disc. The crystals were washed once with cold absolute ethanol, three times with absolute ethanol-diethylether (1:1) mixture and finally with diethyl ether. The crystals of Na3NOTPME were dried in dry nitrogen stream at 25°C for 2 hours. Traces of H2O and ethanol were removed upon vacuum drying (10 mm Hg) NOTPME for 5 hours at 50°C. […] The yield of pure NOTPME was 40.8% (3.24 g, 5.77 mmol).
# NOTPME trisodium salt (178.63 mg, 0.318 mmol) was dissolved in 4.0 ml anhydrous chloroform (freshly distilled from over P4O10) and 120 microliter acetyl chloride was added. The solution was stirred at room temperature for 24 hours in a tightly closed vessel. The solution was then evaporated under dry nitrogen atmosphere to a yellowish, very viscous oil. To the oil anhydrous ether was added and NOTPME-AC (precipitated as a sodium chloride adduct) was filtered off and dried at 35-40°C under dry nitrogen. NOTPME-AC (234.24 mg, 92.3% calculated on the basis of NOTPME-AC.3NaCl formula weight) is an extremely hygroscopic, water sensitive powder.
# NOTPME trisodium salt (164.82 mg, 0.294 mmol) and benzoyl chloride (105 microliter, 0.883 mmol) were reacted in 4.0 ml anhydrous chloroform at room temperature for 24 hours. The rection mixture was worked up with identical method than was used in the synthesis of NOTPME-AC. The product NOTPME-B was get as a sodium chloride adduct (204.32 mg, 70.7% calculated on the basis of NOTPME-B.3NaCl formula weight). NOTPME-B is a very hygroscopic, water sensitive powder. It is soluble in water and chloroform and DMSO.
# [4] = KD determination by 31P NMR (integration of free and metal bound resonances); assay type: binding
# Method: ^1H NMR data was obtained on JEOL FX-200 NMR spectrometer using a 10 mm probe operating at room temperature. Studies on solutions of NOTPME and its complexes were performed on a General Electric GN-500 NMR spectrometer. A 10 mm broad band probe was tuned to 202.4 MHz for ^31P detection. Shifts for NOTPME and its complexes were measured using 85% H3PO4 as an external standard. Probe temperatures were accurate to ± 0.5°C.
# Samples of NOTPME used for KD determinations by NMR consisted of 115 mM KCl, 20 mM NaCl and 10 mM HEPES buffered with Tris base at pH 7.4. Varying concentrations (typically 0.5 to 10 mM) of Mg^2+, Ca^2+ or Zn^2+ were added to the sample and the resulting ^31P NMR spectrum obtained. Resonance areas were determined by integration of peaks using the GE software.
# The area of resonances corresponding to free and metal bound NOTPME were obtained by integration and their concentrations estimated.
# [5] = Stability constants by potentiometric titration; assay type: binding; conditions: for log KML: potentiometry at 25°C, 1:1 metal and ligand, 0.1 M tetramethylammonium chloride
# Method: as §1, §2
# red blood cells = assay: Red blood cell loading of NOTPME derivatives; assay type: cell-based; conditions: during the time course of NMR measurements, after loading with the derivatives
# Method: NOTPME derivatives used are the benzoyl and acetyl derivatives. Fresh whole blood was obtained in heparinized tubes and centrifuged at 3000g for 3 minutes to remove the buffy coat. Packed red blood cells are then washed three times in 5 mM phosphate buffered saline at pH 7.4. Red blood cells at 50% hematocrit were suspended in the NOTPME derivative containing loading medium. The loading medium contained 130 mM NaCl, 5 mM NOTPME derivative (benzoyl or acetyl derivative), 1 mM adenine, 10 mM glucose, and 10 mM HEPES at pH 7.4. Red cells in the above loading medium were incubated at 25°C for 1 hour. No lysis of red blood cells were observed during the loading procedure. After loading with NOTPME derivatives for one hour, the red cell suspension was centrifuged and the supernatant discarded. The red cells are washed twice with 5 mM phosphate buffered saline at pH 7.4 before suspension in an isotonic saline for NMR measurements. […] After NMR measurements the sample was centrifuged and the supernatant analyzed for any leakage of NOTPME. No leak of NOTPME was observed during the time course of NMR measurements. thus, it is clear that these NOTPME derivatives enter the red cells, get hydrolyzed to NOTPME and remain inside red cells.
# [6] = 0.1 m hcl
# Method: In this experiment, Gd(DOTEP)^- and Gd(DOTA)^- were dissolved in 0.1M HCl and their decomposition to free Gd^3+ and free ligand were followed by water relaxation measurements.
compound,measurement,setting,value
CCP(=O)(O)CN1CCN(CP(=O)(O)CC)CCN(CP(=O)(O)CC)CCN(CP(=O)(O)CC)CC1 [DOTEP],Kd,[1],0.011 mM
"CCOP(=O)(O)CN1CCN(CP(=O)(O)OCC)CCN(CP(=O)(O)OCC)CC1 [NOTPME, 1,4,7-Triazacyclononane-N,N',N""-tris(methylenephosphonatemonoethylester)]",lysis of RBCs during the loading procedure,"RBCs; 10 mM NOTPME, 5 mM MgCl2, 37°C, 12 hours, 50% hematocrit",No lysis
same,loading into RBCs,RBCs; in the absence of MgCl2 in the loading medium,not observed
same,loading into red blood cells,RBCs; in the presence of Mg^2+,readily loaded
same,pKa,"[2]; 25°C, read-out: pK1 (first protonation constant, log K1)",11.8
same,pKa,"[2]; 25°C, read-out: pK2 (second protonation constant, log K2)",3.65
same,pKa,"[2]; 25°C, read-out: pK3",1.4
same,pKa,[2]; protonations of the phosphonate ester oxygens,< 1.4
same,solubility in chloroform,[3],fairly soluble
same,solubility in water,[3],readily soluble
same,Kd,"[4]; Ca^2+ complex, 115 mM KCl, 20 mM NaCl, 10 mM HEPES, pH 7.4, read-out: KD (at 25°X)",50 mM
same,Kd,"[4]; Ca^2+ complex, pH 7.4, read-out: KD (at 37°C)",47.6 mM
same,Kd,"[4]; Mg^2+ complex, 31P NMR, 115 mM KCl, 20 mM NaCl, 10 mM HEPES, pH 7.4, read-out: KD (at 25°X)",5.77 mM
same,Kd,"[4]; Mg^2+ complex, 31P NMR, pH 7.4, read-out: KD (at 37°C)",4.66 mM
same,higher affinity for Mg^2+ than for Ca^2+,[4]; at physiological pH values,10 fold
same,log KML,[5]; Ca^2+,5.1
same,log KML,[5]; Mg^2+,6.3
same,Kd,"[5]; Zn^2+ complex, estimated from log KML = 15.4, the ligand pK values and the proton concentration at pH 7.4",0.01 nM
same,leakage of NOTPME into the supernatant,red blood cells,No leak
"CCOP(=O)(CN1CCN(CP(=O)(OCC)OC(C)=O)CCN(CP(=O)(OCC)OC(C)=O)CC1)OC(C)=O (centres unmarked) [NOTPME-AC, 1,4,7-triazacyclononane-N,N',N""-tris(methylenephosphonatemonoethylesteracetic acid anhydride)]",solubility in DMSO,[3],readily soluble
same,solubility in chloroform,[3],readily soluble
same,solubility in water,[3],readily soluble
CCOP(=O)(CN1CCN(CP(=O)(OCC)OC(=O)c2ccccc2)CCN(CP(=O)(OCC)OC(=O)c2ccccc2)CC1)OC(=O)c1ccccc1 (centres unmarked) [NOTPME-B],solubility in DMSO,[3],soluble
same,solubility in chloroform,[3],soluble
same,solubility in water,[3],soluble
Gd(DOTA)^-,half-lives for decomposition,[6],approximately 110 hrs.
